Reference: the supplement of paper PMC13380429

Columns and labels:
Conditions in all cases: 72 h
Calu-3 [1] = assay: cell viability relative to DMSO; higher = less toxic
Vero E6 [2] = assay: as above
HepG2 [3] = assay: as above
Caco-2 [4] = assay: as above
U2OS [5] = assay: as above
Calu-3 [6] = assay: drug sensitivity score (DSS) for viability; higher = more toxic; extreme values may be limits of the assay
Vero E6 [7] = assay: as above
HepG2 [8] = assay: as above
Caco-2 [9] = assay: as above
U2OS [10] = assay: as above
Calu-3 [11] = assay: relative viability EC50 (midpoint between 100% and the lowest measured viability); higher = less toxic
Vero E6 [12] = assay: as above
HepG2 [13] = assay: as above
Caco-2 [14] = assay: as above
U2OS [15] = assay: as above

| Compound | cell viability (Calu-3 [1]; 1 nM) | cell viability (Calu-3 [1]; 10 nM) | cell viability (Calu-3 [1]; 100 nM) | cell viability (Calu-3 [1]; 1000 nM) | cell viability (Calu-3 [1]; 10000 nM) | cell viability (Vero E6 [2]; 1 nM) | cell viability (Vero E6 [2]; 10 nM) | cell viability (Vero E6 [2]; 100 nM) | cell viability (Vero E6 [2]; 1000 nM) | cell viability (Vero E6 [2]; 10000 nM) | cell viability (HepG2 [3]; 1 nM) | cell viability (HepG2 [3]; 10 nM) | cell viability (HepG2 [3]; 100 nM) | cell viability (HepG2 [3]; 1000 nM) | cell viability (HepG2 [3]; 10000 nM) | cell viability (Caco-2 [4]; 1 nM) | cell viability (Caco-2 [4]; 10 nM) | cell viability (Caco-2 [4]; 100 nM) | cell viability (Caco-2 [4]; 1000 nM) | cell viability (Caco-2 [4]; 10000 nM) | cell viability (U2OS [5]; 1 nM) | cell viability (U2OS [5]; 10 nM) | cell viability (U2OS [5]; 100 nM) | cell viability (U2OS [5]; 1000 nM) | cell viability (U2OS [5]; 10000 nM) | drug sensitivity score (Calu-3 [6]) | drug sensitivity score (Vero E6 [7]) | drug sensitivity score (HepG2 [8]) | drug sensitivity score (Caco-2 [9]) | drug sensitivity score (U2OS [10]) | relative viability EC50 (Calu-3 [11]) | relative viability EC50 (Vero E6 [12]) | relative viability EC50 (HepG2 [13]) | relative viability EC50 (Caco-2 [14]) | relative viability EC50 (U2OS [15]) |
| --- | --- | --- | --- | --- | --- | --- | --- | --- | --- | --- | --- | --- | --- | --- | --- | --- | --- | --- | --- | --- | --- | --- | --- | --- | --- | --- | --- | --- | --- | --- | --- | --- | --- | --- | --- |
| NCCCC[C@H](NC(=O)[C@@H]1CCCN1C(=O)[C@@H]1CSSC[C@H](N)C(=O)N[C@@H](Cc2ccc(O)cc2)C(=O)N[C@@H](Cc2ccccc2)C(=O)N[C@@H](CCC(N)=O)C(=O)N[C@@H](CC(N)=O)C(=O)N1)C(=O)NCC(N)=O [lypressin] | 95.6% | 98.1% | 103% | 93.4% | 92.2% | 97.4% | 101% | 95.4% | 99.1% | 100% | 105% | 97.9% | 97.8% | 100% | 100% | 98.6% | 99.6% | 97.8% | 102% | 101% | 99.7% | 105% | 97.5% | 98.8% | 101% | 0 | 0 | 0 | 0 | 0 | > 10 µM | > 10 µM | > 10 µM | > 10 µM | > 10 µM |
| CCCOC(=O)c1ccc(O)cc1 [propyl 4-hydroxybenzoate] | 92.1% | 95.4% | 88.7% | 92.1% | 102% | 108% | 95.9% | 102% | 95.3% | 100% | 108% | 102% | 107% | 89% | 102% | 92.2% | 100% | 102% | 90.2% | 109% | 102% | 97.1% | 100% | 98.9% | 102% | 0 | 0 | 0 | 0 | 0 | > 10 µM | > 10 µM | > 10 µM | > 10 µM | > 10 µM |
| CN1C2CCCC1CC(NC(=O)c1nn(C)c3ccccc13)C2 (stereo not given) [granisetron] | 108% | 106% | 110% | 92.4% | 105% | 111% | 102% | 99.9% | 102% | 96.2% | 109% | 98.1% | 82.7% | 95.1% | 92.7% | 96.7% | 99.1% | 102% | 105% | 107% | 105% | 95.8% | 99.9% | 97.8% | 98.1% | 0 | 0 | 0 | 0 | 0 | > 10 µM | > 10 µM | > 10 µM | > 10 µM | > 10 µM |
| CC1(C)S[C@@H]2[C@H](NC(=O)COc3ccccc3)C(=O)N2[C@H]1C(=O)O [penicillin-v-potassium] | 91.3% | 97.1% | 101% | 108% | 94.9% | 104% | 101% | 104% | 103% | 96.9% | 105% | 105% | 103% | 94.9% | 97.4% | 97.5% | 95.6% | 94.3% | 92.7% | 90% | 101% | 96.4% | 99.8% | 97% | 98.7% | 0 | 0 | 0 | 0 | 0 | > 10 µM | > 10 µM | > 10 µM | > 10 µM | > 10 µM |
| S=C(S)OC1CC2CC1C1CCCC21 (stereo not given) [D609] | 99.3% | 102% | 104% | 103% | 98% | 98.7% | 98% | 102% | 96% | 98.5% | 103% | 98.7% | 102% | 100% | 108% | 100% | 99.2% | 102% | 105% | 102% | 100% | 106% | 96.3% | 102% | 96.6% | 0 | 0 | 0 | 0 | 0 | > 10 µM | > 10 µM | > 10 µM | > 10 µM | > 10 µM |
| O=C(CCCCCCC(=O)Nc1ccccc1)NO [vorinostat] | 96.1% | 96.9% | 87.2% | 62.1% | 20.2% | 99.5% | 99.5% | 103% | 88.9% | 0.3% | 111% | 98.2% | 98.1% | 69.8% | 3% | 89.9% | 99.9% | 93.9% | 93.9% | 2.5% | 97.4% | 96.3% | 94.9% | 79.5% | 2.2% | 9.1 | 7.3 | 9.7 | 6.3 | 8.7 | 0.91 µM | 2.25 µM | 1.37 µM | 2.66 µM | 1.7 µM |
